Columns and labels:
Format in all cases: in vivo, NMRI mice
DTH reaction (SRBC) = experiment: Stimulation of the DTH reaction, relative to the compound from Example 7; details: 200 mg/kg, 1 × i.p. day 0; Example 7 = 100%
Experimental: Either 10^6 or 10^9 red blood cells from sheep were administered intravenously to each animal in groups of 5 female NMRI mice weighing 18-20 g. Sheep erythrocytes are regarded in immunology as a standard test substance (antigen) for the induction of cellular and humoral immune reactions. In particular, this test provides information about the functioning of the T-cell-dependent component (T-helper cells) of the immune system. The test substance obtained as in exemplary embodiment 7 ([2-(3-carboxy-1-propylthio)-4 -methyl-1,3-thiazol-5-yl]acetic acid) was administered intraperitoneally and perorally, respectively, […], each animal received 2×10^8 sheep erythrocytes injected into the underside of the foot and, 24 hours later, the swelling of the foot was measured. The foot swelling is induced by a skin reaction of the delayed type (delayed type hypersensitivity, DTH) and is, as is known to the expert, a measure of the cellular immune response (Collins, F. M. and Mackaness, G. B., J. Immunol. 101, 830-845, 1968). The results compiled in Table 1 illustraste that there is an increase in the cellular immune response owing to the administration of the subst nce obtained according to the invention, for example after imnunization with 10^6 or 10^9 sheep erythrocytes. An optimum stimulation can be observed in this experimental design on administration of 20-40 mg/kg test substance.
NMRI mice were treated with the substances according to the invention as described in experiment 1.
The DTH reaction was checked as a test to determine the immunostimulation.
It can be seen from the table that the DTH reaction in the animals pretreated with the test substances is more pronounced than in the corresponding control animals.

macrophages [1] = experiment: Stimulation of macrophage activity (chemiluminescence), relative to the compound from Example 7; details: 100 mg/kg, 1 × i.p. day 0; relative to Example 7 = 100%
Experimental: (§1) This entailed investigation of the effect of the test substance obtained as in exemplary embodiment 7 on the stimulation of peritoneal macrophages in 6-8 week old NMRI mice. Female mice received the test substance in parenteral or oral doses of 25 mg/kg, 50 mg/kg, 100 mg/kg and 200 mg/kg. Buffered saline solution was administered to a control group. The mice were sacrificed three days after the injections, and the peritoneal macrophages of the animals were examined for their state of activation. The secretion of the lysosomal enzymes (β-galactosidase, β-glucuronidase and N-acetyl-β-D-glucosaminidase) was determined as one measure of macrophage activation. […] The level of oxidative metabolism in macrophages is taken as another measure of their state of activation. This activity is measured with the assistance of a biolumate by determination of the chemiluminescence.
(§2) For this purpose, either 3×10^6 macrophages were cultured with 1 ml of TC 199 culture medium in Petri dishes of diameter 30 mm or 10^6 macrophages were cultured with 100 μl of medium in round-bottomed polyethylene tubes (for determination of the chemiluminescence), with 5% CO2 and at 37° C.
(§3) After incubation for one hour, the cultures were washed to remove floating cells. The chemiluminescence (tube culture) was then determined directly, whereas the Petri dishes were incubated for a further 24 hours at 37° C. and then the enzyme and pinocytosis activities in the cultures were determined.
(§4) NMRI mice were treated with the compounds according to the invention as described in experiment 2.
(§5) The macrophage function (chemiluminescence and enzyme activity) was checked as a test to determine the immunostimulation.
(§6) It can be seen from the table that in comparison with macrophages from untreated animals, the chemiluminescence reaction of these cells was also greatly stimulated by all the test substances, and their content of lysosomal enzymes was markedly raised.

macrophages [2] = experiment: Stimulation of macrophage activity (exocytosis / lysosomal enzyme activity), relative to the compound from Example 7; details: 100 mg/kg, 1 × i.p. day 0; relative to Example 7 = 100%
Experimental: as §1, §2, §3, §4, §5, §6

Cc1nc(SCCCC(=O)O)sc1CC(=O)O [Example 7, [2-(3-Carboxy-1-propylthio)-4-methyl-1,3-thiazol-5-yl]acetic acid]
100%: DTH reaction (SRBC), relative activity (DTH reaction (SRBC)) | Macrophage activity: Chemiluminescence, relative activity (macrophages [1]) | Macrophage activity: Exocytosis, relative activity (macrophages [2])

From patent publication US4762848A, “1,3-thiazoles and their use as immunomodulators” (Hoechst Aktiengesellschaft, priority 1985, dated 1988)
